Patent US10730022B2, “Process for the separation of organic compounds” (VITO NV, priority 2015, dated 2020)
“And” between values parts separate entries of the source, which are not always exact repeats. Equal values may be shown once.

Assays:
[1] = cited from earlier work
[2] = membrane contactor extraction of MPPA/IPA mixture from pH 10 feed into pH 3 sodium acetate collection solution (Example 2); type: physicochemical; conditions: pH 3 collection, 30° C., 20 l/h, 300 to 500 mbar
Method: A mixture of isopropyl amine (IPA) and 1-methyl-3-phenylpropylamine (MPPA) in a pH 10 aqueous buffer (feed solution) was applied to a first compartment of a membrane contactor module, with the second compartment comprising a sodium acetate buffer (pH 3) (collection solution). The membrane separation was performed at a flow rate of 20 l/h, temperature of 30° C. and transmembrane pressure of 300 to 500 mbar. Feed and collection solutions were continuously recycled in the membrane contactor module. The membrane used was a phenyl phosphonic acid functionalized ceramic membrane (as in Example 1), wherein both the external surface as the internal surface of the pores was linked to the organic moiety. The amine concentration in the extracting sodium acetate solution was followed up over time (FIG. 5).

[3] = cited from earlier work; remark: listed apart in the source
[4] = membrane contactor extraction of transamination reaction mixture in organic solvent into pH 3 sodium acetate buffer (Example 3); type: physicochemical; conditions: organic solvent feed, pH 3 sodium acetate extracting solution
Method: An enzymatically catalysed transamination reaction is performed in an organic solvent, using benzyl acetone (BA) and isopropyl amine (IPA) as respectively substrate ketone and substrate amine. […] The resulting products are acetone (as co-product ketone) and (S-)1-methyl-3-phenylpropylamine (S-MPPA—a chiral amine). This reaction is prone to product inhibition by MPPA.
The reaction mixture is passed through a membrane contactor module, using an acidic sodium acetate buffer (pH 3) as extracting solution.

[5] = octanol/water; cited from earlier work
[6] = % uncharged amine at pH 10, calculated using Henderson-Hasselbalch equation; type: physicochemical; conditions: for % uncharged at pH 10: calculated using Henderson-Hasselbalch equation; for uncharged/charged ratio of the amine at the pH of the feed solution: pH 10 feed
Method: Assuming that only the uncharged amine can pass through the membrane, the (theoretical) extractable amount can be calculated using the % uncharged amine at pH 10 (Table 1). For MPPA (596 mg in feed solution) and MBA (484 mg in the feed solution) this corresponds to 113 mg and 358 mg theoretical extractable amine, respectively. After 7 h, 15% of this amount was extracted for MPPA, while only 3% of this amount was extracted for MBA.

[7] = membrane contactor extraction of MPPA/MBA mixture from pH 10 feed into pH 3 sodium acetate collection solution (Example 1); type: physicochemical; conditions: for time of membrane extraction after which amine was detected in the acidic extracting solution: MPPA/MBA mixture, pH 10 feed, pH 3 collection, 30° C., 20 l/h, 300-500 mbar; for % of theoretical extractable amount extracted: after 7 h; for theoretical extractable amine: from % uncharged at pH 10, 596 mg MPPA and 484 mg MBA in feed
Method: A mixture of MPPA and MBA in a pH 10 aqueous buffer (feed solution) was applied to a first compartment of a membrane contactor module, with the second compartment comprising a sodium acetate buffer (pH 3) (collection solution). The membrane separation was performed at a flow rate of 20 l/h, a temperature of 30° C. and a transmembrane pressure of 300-500 mbar. Feed and collection solutions were continuously recycled in the membrane contactor module. The membrane used was a phenyl phosphonic acid functionalized ceramic membrane, wherein both the external surface as the internal surface of the pores was linked to the organic moiety. […] The amine concentration in the extracting sodium acetate solution was followed up over time (FIG. 4).

## CC(=O)CCc1ccccc1 [BA, benzyl acetone]
[1]
  solubility in aqueous liquids: 10 mM and 1.48 g/1

## CC(N)CCc1ccccc1 (stereo not shown) [MPPA, 1-methyl-3-phenylpropylamine]
[2]
  time of membrane extraction after which amine was detected in the acidic extracting solution: less than 1 h
[3]
  pKa: 10.63
[4]
  membrane passage behaviour: efficiently passes the membrane
[5]
  LogP: 2.264
[6]
  % uncharged at pH 10: 19%
  uncharged/charged ratio of the amine at the pH of the feed solution: ≈ 0.25
[7]
  time of membrane extraction after which amine was detected in the acidic extracting solution: less than 1 h
  % of theoretical extractable amount extracted: 15%
  theoretical extractable amine: 113 mg

## CNCc1ccccc1 [MBA, methylbenzylamine]
[3]
  pKa: 9.54
[5]
  LogP: 1.7
[6]
  % uncharged at pH 10: 74%
  uncharged/charged ratio of the amine at the pH of the feed solution: ≈ 3
[7]
  time of membrane extraction after which amine was detected in the acidic extracting solution: 3.5 h
  % of theoretical extractable amount extracted: 3%
  theoretical extractable amine: 358 mg

## CC(C)N [IPA, isopropyl amine]
[2]
  time of membrane extraction after which amine was detected in the acidic extracting solution: about 7 h
[3]
  pKa: 10.73
[4]
  membrane passage behaviour: mainly remains in the feed solution
[5]
  LogP: 0.391
[6]
  % uncharged at pH 10: 16%
